Reference: patent US20240390432A1, “ENGINEERED VECTORS AND ORGANISMS CONTAINING THE SAME FOR ISOFLAVONE CONVERSION IN THE GUT” (Board of Regents, The University of Texas System, priority 2021, published 2024)

Assays:
ERbeta = ERbeta (Homo sapiens, UniProt Q92731); conditions: unlike products activating ERalpha, androgen, glucocorticoid, progesterone, mineralocorticoid receptors; cited from earlier work
[1] = Serum Equol levels of mice given soy hydrogel and probiotic via drinking water; assay type: in vivo; conditions: mouse, oral, positive control: Equol supplemented directly in hydrogel, no Nissle strains
Protocol: Serum Equol levels of the mice were measured after 1 week of consumption of a low or high soy content supplement (1× or 8× soy loaded hydrogel). […] Two sets of negative controls were provided as reference. […] In addition, a positive control group consumed Equol that was supplement directly in the hydrogel to reveal, as expected, a very high elevation in serum Equol concentration reaching almost 5 μM without the addition of the engineered Nissle P1 and Nissle P2 strains.

[2] = Equol-producing postmenopausal women, purified supplement; cited from earlier work

Chain of ERbeta (Q92731 whole entry, species assumed): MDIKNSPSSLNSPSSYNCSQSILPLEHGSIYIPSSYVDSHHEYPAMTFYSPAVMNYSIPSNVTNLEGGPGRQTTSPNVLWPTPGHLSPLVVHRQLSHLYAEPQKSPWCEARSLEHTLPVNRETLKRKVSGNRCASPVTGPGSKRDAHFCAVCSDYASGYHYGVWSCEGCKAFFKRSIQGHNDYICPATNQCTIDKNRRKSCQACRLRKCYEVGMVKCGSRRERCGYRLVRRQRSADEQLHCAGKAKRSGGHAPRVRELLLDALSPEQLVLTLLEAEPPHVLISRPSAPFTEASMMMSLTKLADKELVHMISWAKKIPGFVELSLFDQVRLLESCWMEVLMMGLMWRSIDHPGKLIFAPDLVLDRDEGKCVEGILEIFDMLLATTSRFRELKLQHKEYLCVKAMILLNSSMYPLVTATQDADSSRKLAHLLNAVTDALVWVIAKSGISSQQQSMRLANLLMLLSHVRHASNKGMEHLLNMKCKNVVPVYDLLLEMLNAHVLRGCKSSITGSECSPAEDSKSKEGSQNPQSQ

Row | Structure (SMILES) | receptor selectivity (ERbeta) | concentration at 1 week [1] [µM] | effect on serum LDL-C and C-reactive protein [2]
1 | Oc1ccc([C@H]2COc3cc(O)ccc3C2)cc1 [Equol] | selective agonist for ERbeta | ~5 | –
2 | O=c1c(-c2ccc(O)cc2)coc2cc(O)ccc12 [Daidzein] | – | – | not seen
